The subject of test [1] is HT-29 cells. Conditions: HT-29, earlier reports; cited from earlier work.
Test [2] relates to SW480 cells. The conditions noted are these: SW480, earlier reports; cited from earlier work.
For a further test, the system named is LNCaP cells. In words: Western blot analysis of protein expression in LNCaP cells. The class given is cell-based, Human. Conditions: 10 μM, compound alone. Here is the method:
Human carcinoma cell lines LNCaP (prostate) and SK-MEL2 (melanoma) were obtained from American Type Culture Collection (Manassas, Va.). Cell lines were maintained in RPMI 1640 (Sigma) supplemented with 0.22% sodium bicarbonate, 0.011% sodium pyruvate, 0.45% glucose, 0.24% HEPES, 10% FBS, and 10 mL/L of 100× Antibiotic Antimycotic solution (Sigma). Cells were maintained at 37° C. in the presence of 5% CO2.
An equal amount of cell lysate (60 μg/well) was separated by 7.5% to 12% SDS-PAGE, which was followed by immunoblotting onto polyvinylidene difluoride (Bio-Rad, Hercules, Calif.). After blocking in TBST-Blotto (10 mmol/L Tris-HCl, 150 mmol/L NaCl (pH 8.0), 0.05% Triton X-100, 5% nonfat dry milk) for 30 min, the membranes were incubated with primary antibodies overnight at 4° C. and then with horseradish peroxidase-conjugated secondary antibody for 2 hr at room temperature. Proteins were visualized using the chemiluminescence substrate (Perkin-Elmer Life Sciences) for 1 min and exposed to Kodak X-OMAT AR autoradiography film (Eastman Kodak, Rochester, N.Y.).
(In general: A western blot detects proteins with antibodies after separation by electrophoresis.)

The test system of test [3] is SW480 cells. The conditions noted are these: SW480, reference [9]; cited from earlier work.
The next test concerns the target T1, PPARγ (Homo sapiens, UniProt P37231).
T1 construct: containing the DEF region of the PPARγ (amino acids 183-505) fused to the pVP16 expression vector; expressed in transfected cells; host or cells: SW480 colon cancer cells; plasmid provided by Dr. Shigeaki Kato (University of Tokyo)
T1 sequence (P37231 183-505): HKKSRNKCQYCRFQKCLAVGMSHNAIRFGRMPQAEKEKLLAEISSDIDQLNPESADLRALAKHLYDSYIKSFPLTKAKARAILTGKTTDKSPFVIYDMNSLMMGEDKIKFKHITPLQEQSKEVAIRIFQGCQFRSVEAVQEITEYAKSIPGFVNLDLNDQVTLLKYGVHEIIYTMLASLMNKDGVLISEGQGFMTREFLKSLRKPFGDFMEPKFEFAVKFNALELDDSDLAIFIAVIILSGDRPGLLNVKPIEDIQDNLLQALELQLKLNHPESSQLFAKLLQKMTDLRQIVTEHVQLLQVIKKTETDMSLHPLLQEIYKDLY
In words: Mammalian two-hybrid assay (VP-PPARγ / GAL4-coactivator) in SW480 cells. The class given is cell-based. As to the method: The GAL4 reporter construct containing 5×GAL4 response elements (p GAL4) was provided by Dr. Marty Mayo (University of […], Chapel Hill, N.C.). The GAL4-coactivator fusion plasmids pM-SRC1, pMSRC2, pMSRC3, pM-DRIP205, pM-CARM-1 and PPARγ-VP16 fusion plasmid (Vp-PPARγ) containing the DEF region of the PPARγ (amino acids 183-505) fused to the pVP16 expression vector were provided by Dr. Shigeaki Kato (University of Tokyo, Tokyo, Japan). SW480 colon cancer cells were plated in 12-well tissue culture plates at 1×10^5 cells per well in DMEM/Ham's F-12 medium supplemented with 2.5% charcoal stripped FBS.
After allowing them to adhere overnight, transient transfections were carried out with GAL4-Luc (0.4 μg), β-GAL (0.04 μg), VP-PPARγ (0.04 μg), pM-SRC1 (0.04 μg), pM-PGC-1 (0.04 μg), pM-SMRT (0.04 μg), pM-TRAP220 (0.04 μg), pM-DRIP205 (0.04 μg), and pMCARM1 (0.04 μg) using LipofectAMINE2000 (Invitrogen) following the manufacturer's guidelines. After 6 hr of transfection, cells were treated in triplicate either with vehicle (DMSO) or the indicated compound suspended in complete medium for 20-24 hr. One hundred μL per well of 1× Reporter Lysis Buffer (Promega) was used to lyse the cells and 30 μl of this lysate was used to perform the luciferase and β-GAL assays using Lumicount (Perkin-Elmer Life and Analytical Sciences, Boston, Mass.). The luciferase activities obtained were normalized to the β-gal activity.

In test [4] the test system is HT-29 cells. In words: KLF4 mRNA (RT-PCR) in HT-29 cells. Format: cell-based, human. As to the method: SW480 and HT29 colon cancer cells were treated either with vehicle (DMSO) or indicated compounds and after 24 hr total RNA was extracted using RNeasy Mini kit (Qiagen, Inc., Valencia, Calif.). RNA concentration was measured by UV 260:280 nm absorption ratio and 2 μg RNA was used to synthesize cDNA using Reverse Transcription System (Promega). PCR conditions were as follows: initial denaturation at 94° C. (1 min) followed by 28 cycles of denaturation for 30 s at 94° C., annealing for 60 s at 55° C. and extension at 72° C. for 60 s and a final extension step at 72° C. for 5 min. The mRNA levels were normalized using GAPDH as an internal housekeeping gene. Primers obtained from IDT and used for amplification are as follows: KLF4 (sense 5′-CTATGGCAGGGAGTCCGCTCC-3′ (SEQ ID NO: 1); antisense 5′-ATGACCGACGGGCTGCCGTAC-3′ (SEQ ID NO: 2)) and GAPDH (sense 5′-ACGGATTTGGTCGTATTGGGCG-3′ (SEQ ID NO: 3); antisense 5′-CTCCTGGAAGATGGTGATGG-3′ (SEQ ID NO: 4). PCR products were electrophoresed on 1% agarose gels containing ethidium bromide and visualized under UV transillumination.

SMILES strings stand for the structures. Residues, ends and D or L forms follow the SMILES beside them. *: point of attachment. Cbz = O=C(OCc1ccccc1)*

On to `CC1(C)CC[C@]2(C(=O)O)CC[C@]3(C)[C@H](C(=O)C=C4[C@@]5(C)C=C(C#N)C(=O)C(C)(C)[C@@H]5CC[C@]43C)[C@@H]2C1` [CDDO], for which the caveolin-1 induction entry in the test on HT-29 cells [1] and in the test on SW480 cells [2] was “inducing caveolin-1” in each case.

With `CC(C)C[C@@H](C=O)NC(=O)[C@H](CC(C)C)NC(=O)[C@H](CC(C)C)NC(=O)OCc1ccccc1` [MG132] (Cbz-Leu-Leu-Leu-aldehyde), the PARP cleavage result in the test on LNCaP cells was “induced caspase-dependent cleavage of PARP”.

For `COC(=O)[C@@]1(C)CC[C@]2(C)CC[C@]3(C)C(=CC(=O)[C@@H]4[C@@]5(C)C=C(C#N)C(=O)C(C)(C)[C@@H]5CC[C@]43C)[C@H]2C1` [α-CDODA-Me], the caveolin-1 induction result in the test on HT-29 cells [1] and with SW480 cells [2] was “inducing caveolin-1” throughout. In the test on SW480 cells [3], the “KLF4 mRNA” value was “enhanced KLF4 mRNA”.

For the molecule `COC(=O)[C@@]1(C)CCC2(C)CC[C@]3(C)C(=CC(=O)[C@@H]4C5(C)C=C(C#N)C(=O)C(C)(C)[C@@H]5CCC43C)C2C1` (stereo partly drawn) [β-CDODA-Me, Methyl 2-cyano-3,12-dioxo-18β-olean-1,12-diene-30-oic Acid, reference compound], at PPARγ, the “luciferase activity, VP-PPARγ with GAL4 PGC-1 and GAL4 SRC-1” value is listed as “significantly induced luciferase activity”. Besides, the “effect of T007 on induction of KLF4 mRNA” value in the test on HT-29 cells [4] (HT-29, cotreatment with T007) is recorded as “decreased significantly”. In addition, the “part of induced KLF4 mRNA response inhibited by T007” value in the test on HT-29 cells [4] (cotreatment with T007) is on record as 60-80%.

For `CC1(C)C(=O)C(C#N)=C[C@]2(C)[C@H]3C(=O)C=C4[C@@H]5C[C@@](C)(C(=O)O)CC[C@]5(C)CC[C@@]4(C)[C@]3(C)CC[C@@H]12` [β-CDODA], the caveolin-1 induction entry in the test on HT-29 cells [1] is “induced caveolin-1”.
